Where two headings read alike, the source gives them in different places. One block for each compound: values may come before it.
Assays:
[1] = mouse, in vivo
Description: Mice were anesthetized by intra-peritoneal injection of a mixture of ketamine and xylazine at 140:8 mg/kg. The right common carotid artery was ligated on the heart side and the right external carotid artery was ligated at the level of the bifurcation. A catheter was inserted into the right common carotid artery. The perfusion liquid was contained in a syringe placed in an infusion pump and connected to the catheter. Before the perfusion, the thorax of the animal was opened, the heart was removed and perfusion started immediately at flow of 2.5 mL/min. […] The brain uptake of tritiated tracers was also measured in the presence of unlabeled substrates [probucol 10 µM, desmosterol 20 µM orT4 10 µM], dissolved in their respective vehicles [DMSO ( < 0.5% in final perfusion fluid) or H2O/NaOH]. […] Labeled compounds were counted on a Tri-Carb® (PerkinElmer) counter with the appropriate dual (^14C/^3H) quenching curves and standards to measure disintegration per minute (dpm) in samples.
The brain uptake clearance (Clup, µL/g) is the ratio between the apparent tissue distribution volume (Vbrain, µL/g) of [^3H]Aβ1–40 or [^3H]desmosterol and the perfusion time (s). […] Xbrain is obtained by this equation: Xbrain=Xtot−(Vvasc×Cperf) where Xtot (dpm/g) is the total amount of tritiated tracer measured in the brain tissue sample (vascular and extravascular).

Abcb1 and Abcg2 = details: brain efflux index (BEI) method; cited from earlier work
Abcg4 [2] = details: mouse, in vivo
Description: (§1) The function of Abcg4 at the mouse BBB was evaluated by using the in situ brain perfusion (ISBP) technique. This method was developed to study drug transport processes occurring at the luminal side of the BCECs[40],[41] and can be used to measure transport parameters, including the brain volume of distribution and the brain uptake clearance (Clup) of a target molecule over very short periods (30–120 s). The resulting Clup integrates the effect of enhancing or limiting factors introduced by the transporters located at the luminal side of BCECs. This method allows for measurement of the initial brain uptake of molecules, which results from both the influx and the efflux mechanisms involved in their transport. One of the advantages of this technique is the ability to administer inhibitors, or to use transporter deficient mice, in order to modulate function at the luminal side of the BBB.
(§2) Mice were anesthetized by intra-peritoneal injection of a mixture of ketamine and xylazine at 140:8 mg/kg. The right common carotid artery was ligated on the heart side and the right external carotid artery was ligated at the level of the bifurcation. A catheter was inserted into the right common carotid artery. The perfusion liquid was contained in a syringe placed in an infusion pump and connected to the catheter. Before the perfusion, the thorax of the animal was opened, the heart was removed and perfusion started immediately at flow of 2.5 mL/min. The perfusion fluid was Krebs bicarbonate-buffered physiological saline (128 mM NaCl, 24 mM NaHCO3, 4.2 mM KCl, 2.4 NaH2PO4, 1.5 mM CaCl2, 0.9 mM MgCl2 and 9 mM D-glucose).The solution was gassed with 95% O2−5% CO2 to bring the pH to 7.40 and warmed to 37 °C in water bath. Each mouse was perfused for 60 s with [^3H]Aβ1–40 (0.2 µCi/mL) or [^3H]desmosterol (0.2 µCi/mL). [^14C]sucrose was used as a vascular marker of the physical integrity of the BBB and co-perfused with the tritiated substrate. The brain uptake of tritiated tracers was also measured in the presence of unlabeled substrates [probucol 10 µM, desmosterol 20 µM orT4 10 µM], dissolved in their respective vehicles [DMSO ( < 0.5% in final perfusion fluid) or H2O/NaOH]. The experiment was terminated by decapitating the mouse. The right cerebral hemisphere and aliquots of the perfusion fluid were sampled in tared vials, weighted, digested in 2 mL of Solvable® solubilizer (PerkinElmer, Courtaboeuf, France) at 50 °C and mixed with 9 mL of Ultima Gold XR® scintillation cocktail (PerkinElmer). Labeled compounds were counted on a Tri-Carb® (PerkinElmer) counter with the appropriate dual (^14C/^3H) quenching curves and standards to measure disintegration per minute (dpm) in samples.
(§3) The brain uptake clearance (Clup, µL/g) is the ratio between the apparent tissue distribution volume (Vbrain, µL/g) of [^3H]Aβ1–40 or [^3H]desmosterol and the perfusion time (s). The Vbrain was calculated from the amount of radioactivity in the right brain hemisphere using the following equation: Vbrain=Xbrain/Cperf where Xbrain (dpm/g) is the calculated amount of tritiated tracer in the right cerebral parenchyma and Cperf (dpm/µL) is the concentration of tritiated tracer in the perfusion fluid. Xbrain is obtained by this equation: Xbrain=Xtot−(Vvasc×Cperf) where Xtot (dpm/g) is the total amount of tritiated tracer measured in the brain tissue sample (vascular and extravascular).

Abcb1 = tested on: Abcb1; set-up: method as in PMID 11181832; details: read-out: Km of Aβ reported for Abcb1; cited from earlier work
Abcg4 [3] = molecular target: T1, Abcg4 (Mus musculus, UniProt Q91WA9); test: In situ brain perfusion (ISBP): brain uptake clearance of tritiated tracers at the luminal BBB, WT and Abcg4-KO mice; details: WT mice, 60 s perfusion
Description: as §1, §2, §3

Abcg4 [4] = test: as above
Description: as §1, §2, §3

Abcg4 [5] = molecular target: T1, Abcg4; test: Abcg4-mediated Aβ transport/efflux in HEK-Abcg4 transfected cells; format: cell-based; details: data not shown
Description: Abcg4 monomers come together to form a homodimer that includes nearly identical binding clefts which are opposite one another on the dimer surface. The homology model is an approximation of the dimer structure frozen in time which fails to capture the dynamic nature of protein motions. In vivo it is likely that nucleotide binding changes the overall configuration of the dimer to allow for sterol binding on one side of the complex followed by translocation of sterol to the dimer core before being exported from the membrane. One consequence of this movement could be that only one sterol-binding site exists at a given time. Thus, sterol binding would alternate from one binding site to the other as sterols are translocated. This mechanism could explain why the homology model has a single sterol-binding site despite the presence of two nearly identical binding clefts. […] Abcg4 seems to have two Aβ binding sites which agrees with our previous data that percent efflux of Aβ was greater than cholesterol[18] and with our current data that desmosterol competes with Aβ efflux. Furthermore, we previously measured, in HEK-Abcg4 transfected cells, the velocity of Aβ transport by Abcg4 as a function of [^3H]Aβ1-40 concentrations. […]

Abcg4 [6] = molecular target: T1, Abcg4; set-up: Wild-type C57BL/6 and Abcg4-KO mice had free access to standard laboratory food and water; from tissue; host or cells: brain capillary endothelial cells of living C57BL/6 mice (in situ brain perfusion); details: HEK-Abcg4 transfected cells; cited from earlier work
Description: We had shown previously that a probucol- and T4-sensitive transporter, different from Abca1, Abcb1 and Abcg2, restricted the brain entry of [^3H]Aβ1-40 through the mouse BBB[18],[43].

[7] = T4 10 µM in perfusion buffer, means of 5–8 mice
[8] = Abcg4-KO mice, T4 10 µM, 60 s perfusion, 5–8 mice
[9] = Abcg4-KO mice, probucol 10 µM, 60 s perfusion, 8–9 mice

T1 sequence (Q91WA9 whole entry, the tested form may be a part): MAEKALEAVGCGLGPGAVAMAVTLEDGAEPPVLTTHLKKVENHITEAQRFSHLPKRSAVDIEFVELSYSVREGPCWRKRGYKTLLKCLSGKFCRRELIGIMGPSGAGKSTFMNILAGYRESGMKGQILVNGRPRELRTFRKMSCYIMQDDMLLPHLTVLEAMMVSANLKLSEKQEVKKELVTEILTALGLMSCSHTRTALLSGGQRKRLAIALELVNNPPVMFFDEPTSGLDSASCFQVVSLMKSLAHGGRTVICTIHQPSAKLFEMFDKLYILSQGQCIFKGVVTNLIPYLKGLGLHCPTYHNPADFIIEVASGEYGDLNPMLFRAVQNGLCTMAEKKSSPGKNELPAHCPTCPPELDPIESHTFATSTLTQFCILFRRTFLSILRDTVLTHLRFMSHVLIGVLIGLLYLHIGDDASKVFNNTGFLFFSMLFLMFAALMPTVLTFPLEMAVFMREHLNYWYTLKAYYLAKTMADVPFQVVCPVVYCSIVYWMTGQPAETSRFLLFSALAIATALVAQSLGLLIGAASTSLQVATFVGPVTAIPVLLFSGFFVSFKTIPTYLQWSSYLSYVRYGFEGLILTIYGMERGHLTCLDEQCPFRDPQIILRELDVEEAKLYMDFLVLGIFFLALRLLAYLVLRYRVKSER

Compound: CNC(=O)c1cc(Oc2ccc(NC(=O)Nc3ccc(Cl)c(C(F)(F)F)c3)cc2)ccn1 [sorafenib]
- Brain clearance in Mdr1a/b−/− mice compared with WT mice (Abcb1 and Abcg2): the same
- Decrease of brain clearance in Abcb1/Abcg2-deficient mice (Abcb1 and Abcg2): 2.5 fold
- Decrease of brain clearance in Abcg2-deficient mice (Abcb1 and Abcg2): 2 fold

Compound: Aβ1–40: amyloid-β peptide, 40 amino-acid form, used tritiated as transport tracer
- Brain uptake clearance (Clup) in Abcg4-KO mice compared with WT mice (Abcg4 [2]): not significantly different
- Km (Abcb1): 12.5 µM

Compound: CC(C)=CCC[C@@H](C)[C@H]1CC[C@H]2[C@@H]3CC=C4C[C@@H](O)CC[C@]4(C)[C@H]3CC[C@]12C [desmosterol]
- Increase of [3H]Aβ1-40 Clup in the presence vs absence of desmosterol (ER desmosterol/ctrl) (Abcg4 [3]; desmosterol 20 µM in perfusion buffer, means of 5–7 mice): 1.8 fold
- Effect of desmosterol on [3H]Aβ1-40 Clup (Abcg4 [4]; Abcg4-KO mice, desmosterol 20 µM, 60 s perfusion, 5–7 mice): no significant effect
- Time course of brain volume of distribution (Vbrain) as a function of perfusion time (Abcg4 [4]; WT C57BL/6 mice, right hemisphere, in situ brain perfusion, 3 animals per data point, r2 = 0.944): linear increase
- Brain uptake clearance (Clup) in Abcg4-KO mice compared with WT mice (Abcg4 [4]; in situ brain perfusion, 60 s, tracer 0.2 µCi/mL, absence of probucol, 8–9 mice, two-way ANOVA, Bonferroni): not significantly different

Continued, in another order:

- Brain vascular volume (Vvasc), distribution volume of [14C]sucrose [1]: under 20 µL/g
Compound: OC[C@H]1O[C@@](CO)(O[C@H]2O[C@H](CO)[C@@H](O)[C@H](O)[C@H]2O)[C@@H](O)[C@@H]1O [sucrose]

- Increase of [3H]Aβ1–40 Clup in the presence vs absence of T4 (ER T4/ctrl) (Abcg4 [3]; [7]): 2 fold
- Increase of [3H]desmosterol Clup in the presence vs absence of T4 (ER T4/ctrl) (Abcg4 [3]; [7]): 1.8 fold
- Inhibition of Abcg4-mediated Aβ efflux (Abcg4 [5]): 5.8 fold
Compound: N[C@@H](Cc1cc(I)c(Oc2cc(I)c(O)c(I)c2)c(I)c1)C(=O)O [T4, L-thyroxine]
- Effect of T4 on [3H]Aβ1–40 Clup (Abcg4 [4]; [8]): this effect was lost
- Effect of T4 on [3H]desmosterol Clup (Abcg4 [4]; [8]): this effect was lost

- Increase of [3H]desmosterol Clup in the presence vs absence of probucol (ER probucol/ctrl) (Abcg4 [3]; probucol 10 µM in perfusion fluid, [3H]desmosterol 0.2 µCi/mL, Krebs bicarbonate pH 7.40, 37 °C, means of 8–9 mice): 1.8 fold
- Increase of [3H]Aβ1–40 Clup in the presence vs absence of probucol (ER probucol/ctrl) (Abcg4 [3]; probucol 10 µM, [3H]Aβ1–40 0.2 µCi/mL, pH 7.40, 37 °C, means of 8–9 mice): 2.1 fold
Compound: CC(C)(Sc1cc(C(C)(C)C)c(O)c(C(C)(C)C)c1)Sc1cc(C(C)(C)C)c(O)c(C(C)(C)C)c1 [probucol]
- Effect of probucol on [3H]Aβ1–40 Clup (Abcg4 [4]; [9]): this effect was lost
- Effect of probucol on [3H]desmosterol Clup (Abcg4 [4]; [9]): this effect was lost
- Inhibition of Abcg4-mediated Aβ efflux (Abcg4 [6]): 2 fold

— PMC5645361, “Expression and function of Abcg4 in the mouse blood-brain barrier: role in restricting the brain entry of amyloid-β peptide” (Scientific Reports, 2017)
